The source made the active and inactive calls. No cut-off for these calls is given here.
Key:
[1] = system: Bifora radians; assay: Herbicidal activity against ALS-inhibiting herbicide-resistant six to eight-leaf stage Bifora radians infested wheat field at ED50 applied by spraying relative to ALS-inhibiting herbicide-sensitive Bifora radians; type: functional
[2] = system: Bifora radians; assay: Herbicidal activity against ALS-inhibiting herbicide-resistant four to six-leaf stage Bifora radians infested wheat field at 15 to 20 g/ha applied by spraying measured after 14 to 56 days post treatment; type: functional, organism-based
[3] = system: Bifora radians; assay: Herbicidal activity against ALS-inhibiting herbicide-resistant two to four-leaf stage Bifora radians infested wheat field at ED90 applied by spraying relative to ALS-inhibiting herbicide-sensitive Bifora radians; type: functional
[4] = system: Bifora radians; assay: Herbicidal activity against ALS-inhibiting herbicide-resistant two to four-leaf stage Bifora radians infested wheat field at ED50 applied by spraying relative to ALS-inhibiting herbicide-sensitive Bifora radians; type: functional
[5] = system: Bifora radians; assay: Herbicidal activity against ALS-inhibiting herbicide-resistant two to four-leaf stage Bifora radians infested wheat field at 15 to 20 g/ha applied by spraying measured after 14 to 56 days post treatment; type: functional, organism-based
[6] = system: Bifora radians; assay: Herbicidal activity against ALS-inhibiting herbicide-resistant six to eight-leaf stage Bifora radians infested wheat field at 15 to 20 g/ha applied by spraying measured after 14 to 56 days post treatment; type: functional, organism-based
[7] = system: Bifora radians; assay: Herbicidal activity against ALS-inhibiting herbicide-resistant four to six-leaf stage Bifora radians infested wheat field at ED90 applied by spraying relative to ALS-inhibiting herbicide-sensitive Bifora radians; type: functional
[8] = system: Bifora radians; assay: Herbicidal activity against ALS-inhibiting herbicide-resistant six to eight-leaf stage Bifora radians infested wheat field at ED90 applied by spraying relative to ALS-inhibiting herbicide-sensitive Bifora radians; type: functional
[9] = system: Bifora radians; assay: Herbicidal activity against ALS-inhibiting herbicide-resistant four to six-leaf stage Bifora radians infested wheat field at ED50 applied by spraying relative to ALS-inhibiting herbicide-sensitive Bifora radians; type: functional

Question: Which results are given for COc1nc(C)nc(NC(=O)NS(=O)(=O)c2ccccc2Cl)n1 [CHLORSULFURON]?
Answer: Ratio [1]: 2.3; Activity [2]: Active; Ratio [3]: 1.6; Ratio [4]: 1.9; Activity [5]: Active; Activity [6]: Active; Ratio [7]: 1.6; Ratio [8]: 2; Ratio [9]: 1.8

Question: For COC(=O)c1ccccc1S(=O)(=O)NC(=O)N(C)c1nc(C)nc(OC)n1 [TRIBENURON METHYL], which Ratio [1] is on record?
Answer: The Ratio was 2.

Question: What about the Ratio [3] of the same molecule?
Answer: The Ratio was 1.8.

Question: And the Ratio [4]?
Answer: Its Ratio is 1.7.

Question: What about the Ratio [7] of the same molecule?
Answer: Its Ratio is 1.9.

Question: What about the Ratio [8] of the same molecule?
Answer: The Ratio was 2.4.

Question: What about the Ratio [9] of the same molecule?
Answer: Its Ratio is 1.8.

From ChEMBL document CHEMBL3046272, “Tolerance of two Bifora radians Bieb populations to ALS inhibitors in winter wheat” (2012)
